Like-named read-outs stand apart in the source and are kept apart here.
Assays:
[1] = cited from earlier work
OATP1B = details: oral glyburide 1.25 mg, i.v. infusion of 600 mg rifampicin, over 24 h; cited from earlier work
[2] = type: in vivo, humans; details: final model
plasma protein = details: cited from earlier work

Row | clearance CL=VB×ke [2] [L/h] | kBP (transfer blood to pancreas) [2] [h⁻¹] | kBS (transfer blood to spleen) [2] [h⁻¹] | kPB (transfer pancreas to blood) [2] [h⁻¹] | kSB (transfer spleen to blood) [2] [h⁻¹] | kL1B (exchange rate liver to blood) ([2]; without rifampicin) [h⁻^1] | Structure (SMILES) | volume of distribution outside central compartment (previous estimates) ([1]; 95% CI 1.3–3.2 L derived from reported estimates) [L] | central volume of distribution ([1]; Rydberg et al.) [L] | elimination rate ([1]; Rydberg et al.) [h⁻^1] | central volume of distribution ([1]; traditional PK modeling, blood samples) [L] | increase of plasma AUC vs baseline (OATP1B) [%] | binding to plasma protein (plasma protein) [%]
1 | – | – | – | – | – | – | COc1ccc(Cl)cc1C(=O)NCCc1ccc(S(=O)(=O)NC(=O)NC2CCCCC2)cc1 [glyburide] | 2 | 3.63 | 1.59 | 3.8 | 125 ± 51.5 | –
2 | 2.84 | 5.9 | 5.9 | 138 | 131 | 20 | COc1ccc(Cl)cc1C(=O)NCCc1ccc(S(=O)(=O)NC(=O)NC2CCCCC2)cc1 [[^11C]glyburide] | – | – | – | – | – | > 99
